Measured values: ChEMBL document CHEMBL1201861, “Genomics of Drug Sensitity in Cancer screening data, Wellcome Trust Sanger Institute”

Assays:
Experiment in all cases: cells
HT-1376 = type: functional, cell-based, Homo sapiens; conditions: Homo sapiens, HT-1376
Description: SANGER: Inhibition of human HT-1376 cell growth in a cell viability assay.

SK-HEP1 = type: functional, cell-based, Homo sapiens, SK-HEP-1; conditions: Homo sapiens, SK-HEP1
Description: SANGER: Inhibition of human SK-HEP-1 cell growth in a cell viability assay.

A2058 = type: functional, cell-based, Homo sapiens; conditions: Homo sapiens, A2058
Description: SANGER: Inhibition of human A2058 cell growth in a cell viability assay.

NCI-H1755 = type: functional, cell-based, Homo sapiens; conditions: Homo sapiens, NCI-H1755
Description: SANGER: Inhibition of human NCI-H1755 cell growth in a cell viability assay.

Calu-3 = type: functional, cell-based, Homo sapiens; conditions: Homo sapiens, Calu-3
Description: SANGER: Inhibition of human Calu-3 cell growth in a cell viability assay.

SK-MEL3 = type: functional, cell-based, Homo sapiens, SK-MEL-3; conditions: Homo sapiens, SK-MEL3
Description: SANGER: Inhibition of human SK-MEL-3 cell growth in a cell viability assay.

TE-441-T = type: functional, cell-based, Homo sapiens; conditions: Homo sapiens, TE-441-T
Description: SANGER: Inhibition of human TE-441-T cell growth in a cell viability assay.

BFTC-909 = type: functional, cell-based, Homo sapiens; conditions: Homo sapiens, BFTC-909
Description: SANGER: Inhibition of human BFTC-909 cell growth in a cell viability assay.

NCI-H727 = type: functional, cell-based, Homo sapiens; conditions: Homo sapiens, NCI-H727
Description: SANGER: Inhibition of human NCI-H727 cell growth in a cell viability assay.

HT1197 = type: functional, cell-based, Homo sapiens, HT-1197; conditions: Homo sapiens, HT1197
Description: SANGER: Inhibition of human HT-1197 cell growth in a cell viability assay.

NCI-H2052 = type: functional, cell-based, Homo sapiens; conditions: Homo sapiens, NCI-H2052
Description: SANGER: Inhibition of human NCI-H2052 cell growth in a cell viability assay.

BFTC-905 = type: functional, cell-based, Homo sapiens; conditions: Homo sapiens, BFTC-905
Description: SANGER: Inhibition of human BFTC-905 cell growth in a cell viability assay.

EB2 = type: functional, cell-based, Homo sapiens; conditions: Homo sapiens, EB2
Description: SANGER: Inhibition of human EB2 cell growth in a cell viability assay.

ACHN = type: functional, cell-based, Homo sapiens; conditions: Homo sapiens, ACHN
Description: SANGER: Inhibition of human ACHN cell growth in a cell viability assay.

HuP-T3 = type: functional, cell-based, Homo sapiens; conditions: Homo sapiens, HuP-T3
Description: SANGER: Inhibition of human HuP-T3 cell growth in a cell viability assay.

NCI-H2171 = type: functional, cell-based, Homo sapiens; conditions: Homo sapiens, NCI-H2171
Description: SANGER: Inhibition of human NCI-H2171 cell growth in a cell viability assay.

SF-295 = type: functional, cell-based, Homo sapiens; conditions: Homo sapiens, SF-295
Description: SANGER: Inhibition of human SF295 cell growth in a cell viability assay.

KYSE-510 = type: functional, cell-based, Homo sapiens; conditions: Homo sapiens, KYSE-510
Description: SANGER: Inhibition of human KYSE-510 cell growth in a cell viability assay.

HCC1569 = type: functional, cell-based, Homo sapiens; conditions: Homo sapiens, HCC1569
Description: SANGER: Inhibition of human HCC1569 cell growth in a cell viability assay.

DU-145 = type: functional, cell-based, Homo sapiens; conditions: Homo sapiens, DU-145
Description: SANGER: Inhibition of human DU-145 cell growth in a cell viability assay.

JEG-3 = type: functional, cell-based, Homo sapiens; conditions: Homo sapiens, JEG-3
Description: SANGER: Inhibition of human JEG-3 cell growth in a cell viability assay.

CAL-27 = type: functional, cell-based, Homo sapiens; conditions: Homo sapiens, CAL-27
Description: SANGER: Inhibition of human CAL-27 cell growth in a cell viability assay.

CP50-MEL-B = type: functional, cell-based, Homo sapiens; conditions: Homo sapiens, CP50-MEL-B
Description: SANGER: Inhibition of human CP50-MEL-B cell growth in a cell viability assay.

CAL-85-1 = type: functional, cell-based, Homo sapiens; conditions: Homo sapiens, CAL-85-1
Description: SANGER: Inhibition of human CAL-85-1 cell growth in a cell viability assay.

PC-14 = type: functional, cell-based, Homo sapiens; conditions: Homo sapiens, PC-14
Description: SANGER: Inhibition of human PC-14 cell growth in a cell viability assay.

OVCAR-5 = type: functional, cell-based, Homo sapiens; conditions: Homo sapiens, OVCAR-5
Description: SANGER: Inhibition of human OVCAR-5 cell growth in a cell viability assay.

LCLC-97TM1 = type: functional, cell-based, Homo sapiens; conditions: Homo sapiens, LCLC-97TM1
Description: SANGER: Inhibition of human LCLC-97TM1 cell growth in a cell viability assay.

ASPC1 = type: functional, cell-based, Homo sapiens; conditions: Homo sapiens, ASPC1
Description: SANGER: Inhibition of human AsPC-1 cell growth in a cell viability assay.

MDA-MB-361 = type: functional, cell-based, Homo sapiens; conditions: Homo sapiens, MDA-MB-361
SK-MEL-24 = type: functional, cell-based, Homo sapiens; conditions: Homo sapiens, SK-MEL-24
Description: SANGER: Inhibition of human SK-MEL-24 cell growth in a cell viability assay.

P12-Ichikawa = type: functional, cell-based, Homo sapiens; conditions: Homo sapiens, P12-Ichikawa
NCI-H810 = type: functional, cell-based, Homo sapiens; conditions: Homo sapiens, NCI-H810
Description: SANGER: Inhibition of human NCI-H810 cell growth in a cell viability assay.

SCC-9 = type: functional, cell-based, Homo sapiens; conditions: Homo sapiens, SCC-9
Description: SANGER: Inhibition of human SCC-9 cell growth in a cell viability assay.

HuCCT-1 = type: functional, cell-based, Homo sapiens, HuCCT1; conditions: Homo sapiens, HuCCT-1
Description: SANGER: Inhibition of human HuCCT1 cell growth in a cell viability assay.

C-33-A = type: functional, cell-based, Homo sapiens; conditions: Homo sapiens, C-33-A
Description: SANGER: Inhibition of human C-33-A cell growth in a cell viability assay.

KYSE-150 cell line = type: functional, cell-based, Homo sapiens; conditions: Homo sapiens, KYSE-150
Description: SANGER: Inhibition of human KYSE-150 cell growth in a cell viability assay.

HSC-3 = type: functional, cell-based, Homo sapiens; conditions: Homo sapiens, HSC-3
Description: SANGER: Inhibition of human HSC-3 cell growth in a cell viability assay.

SN12C = type: functional, cell-based, Homo sapiens; conditions: Homo sapiens, SN12C
Description: SANGER: Inhibition of human SN12C cell growth in a cell viability assay.

PF-382 = type: functional, cell-based, Homo sapiens; conditions: Homo sapiens, PF-382
Description: SANGER: Inhibition of human PF-382 cell growth in a cell viability assay.

Panc1005 = type: functional, cell-based, Homo sapiens; conditions: Homo sapiens, Panc1005
Description: SANGER: Inhibition of human PANC-10-05 cell growth in a cell viability assay.

NCI-H1563 = type: functional, cell-based, Homo sapiens; conditions: Homo sapiens, NCI-H1563
Description: SANGER: Inhibition of human NCI-H1563 cell growth in a cell viability assay.

AN3-CA = type: functional, cell-based, Homo sapiens; conditions: Homo sapiens, AN3-CA
Description: SANGER: Inhibition of human AN3-CA cell growth in a cell viability assay.

HOP-92 = type: functional, cell-based, Homo sapiens; conditions: Homo sapiens, HOP-92
Description: SANGER: Inhibition of human HOP-92 cell growth in a cell viability assay.

RCM-1 = type: functional, cell-based, Homo sapiens; conditions: Homo sapiens, RCM-1
Description: SANGER: Inhibition of human RCM-1 cell growth in a cell viability assay.

## Oc1ccc2ccccc2c1SSc1c(O)ccc2ccccc12
HT-1376
  IC50: > 32 µM
SK-HEP1
  IC50: > 32 µM
A2058
  IC50: > 32 µM
NCI-H1755
  IC50: > 32 µM
Calu-3
  IC50: > 32 µM
SK-MEL3
  IC50: > 32 µM
TE-441-T
  IC50: 11.5 µM
BFTC-909
  IC50: > 32 µM
NCI-H727
  IC50: 19.7 µM
HT1197
  IC50: 10.3 µM
NCI-H2052
  IC50: > 32 µM
BFTC-905
  IC50: 5.15 µM
EB2
  IC50: 4.49 µM
ACHN
  IC50: > 32 µM
HuP-T3
  IC50: > 32 µM
NCI-H2171
  IC50: > 32 µM
SF-295
  IC50: > 32 µM
KYSE-510
  IC50: > 32 µM
HCC1569
  IC50: > 32 µM
DU-145
  IC50: 8.21 µM
JEG-3
  IC50: > 32 µM
CAL-27
  IC50: > 32 µM
CP50-MEL-B
  IC50: > 32 µM
CAL-85-1
  IC50: 7.37 µM
PC-14
  IC50: > 32 µM
OVCAR-5
  IC50: > 32 µM
LCLC-97TM1
  IC50: > 32 µM
ASPC1
  IC50: > 32 µM
MDA-MB-361
  IC50: > 32 µM
SK-MEL-24
  IC50: > 32 µM
P12-Ichikawa
  IC50: > 32 µM
NCI-H810
  IC50: > 32 µM
SCC-9
  IC50: > 32 µM
HuCCT-1
  IC50: 20.1 µM
C-33-A
  IC50: > 32 µM
KYSE-150 cell line
  IC50: > 32 µM
HSC-3
  IC50: > 32 µM
SN12C
  IC50: > 32 µM
PF-382
  IC50: 5.35 µM
Panc1005
  IC50: > 32 µM
NCI-H1563
  IC50: > 32 µM
AN3-CA
  IC50: 14.3 µM
HOP-92
  IC50: > 32 µM
RCM-1
  IC50: > 32 µM

## C=C(c1ccc(C(=O)O)cc1)c1cc2c(cc1C)C(C)(C)CCC2(C)C [BEXAROTENE]
HT-1376
  IC50: > 8 µM
SK-HEP1
  IC50: > 8 µM
A2058
  IC50: > 8 µM
NCI-H1755
  IC50: > 8 µM
Calu-3
  IC50: > 8 µM
SK-MEL3
  IC50: > 8 µM
TE-441-T
  IC50: > 8 µM
BFTC-909
  IC50: > 8 µM
NCI-H727
  IC50: > 8 µM
HT1197
  IC50: > 8 µM
NCI-H2052
  IC50: > 8 µM
BFTC-905
  IC50: > 8 µM
EB2
  IC50: > 8 µM
ACHN
  IC50: > 8 µM
HuP-T3
  IC50: > 8 µM
NCI-H2171
  IC50: > 8 µM
SF-295
  IC50: 5.17 µM
KYSE-510
  IC50: > 8 µM
HCC1569
  IC50: > 8 µM
DU-145
  IC50: > 8 µM
JEG-3
  IC50: > 8 µM
CAL-27
  IC50: > 8 µM
CP50-MEL-B
  IC50: > 8 µM
CAL-85-1
  IC50: > 8 µM
PC-14
  IC50: > 8 µM
OVCAR-5
  IC50: > 8 µM
LCLC-97TM1
  IC50: > 8 µM
ASPC1
  IC50: > 8 µM
MDA-MB-361
  IC50: > 8 µM
SK-MEL-24
  IC50: > 8 µM
P12-Ichikawa
  IC50: > 8 µM
NCI-H810
  IC50: > 8 µM
SCC-9
  IC50: > 8 µM
HuCCT-1
  IC50: > 8 µM
C-33-A
  IC50: > 8 µM
KYSE-150 cell line
  IC50: > 8 µM
HSC-3
  IC50: > 8 µM
SN12C
  IC50: > 8 µM
PF-382
  IC50: > 8 µM
Panc1005
  IC50: > 8 µM
NCI-H1563
  IC50: > 8 µM
AN3-CA
  IC50: > 8 µM
HOP-92
  IC50: > 8 µM
RCM-1
  IC50: > 8 µM

## CCC/C=C/C=C/C(=O)O[C@H]1/C(=C/C(=O)OC)C[C@H]2C[C@H]([C@@H](C)O)OC(=O)C[C@H](O)C[C@@H]3C[C@H](OC(C)=O)C(C)(C)[C@](O)(C[C@@H]4C/C(=C/C(=O)OC)C[C@H](/C=C/C(C)(C)[C@]1(O)O2)O4)O3 [BRYOSTATIN 1]
HT-1376
  IC50: > 0.008 µM
SK-HEP1
  IC50: > 0.008 µM
A2058
  IC50: > 0.008 µM
NCI-H1755
  IC50: > 0.008 µM
Calu-3
  IC50: > 0.008 µM
SK-MEL3
  IC50: > 0.008 µM
TE-441-T
  IC50: > 0.008 µM
BFTC-909
  IC50: > 0.008 µM
NCI-H727
  IC50: > 0.008 µM
HT1197
  IC50: > 0.008 µM
NCI-H2052
  IC50: > 0.008 µM
BFTC-905
  IC50: > 0.008 µM
EB2
  IC50: > 0.008 µM
ACHN
  IC50: > 0.008 µM
HuP-T3
  IC50: > 0.008 µM
NCI-H2171
  IC50: > 0.008 µM
SF-295
  IC50: > 0.008 µM
KYSE-510
  IC50: > 0.008 µM
HCC1569
  IC50: > 0.008 µM
DU-145
  IC50: > 0.008 µM
JEG-3
  IC50: > 0.008 µM
CAL-27
  IC50: > 0.008 µM
CP50-MEL-B
  IC50: > 0.008 µM
CAL-85-1
  IC50: 0.00552 µM
PC-14
  IC50: > 0.008 µM
OVCAR-5
  IC50: > 0.008 µM
LCLC-97TM1
  IC50: > 0.008 µM
ASPC1
  IC50: > 0.008 µM
MDA-MB-361
  IC50: > 0.008 µM
SK-MEL-24
  IC50: > 0.008 µM
P12-Ichikawa
  IC50: > 0.008 µM
NCI-H810
  IC50: > 0.008 µM
SCC-9
  IC50: > 0.008 µM
HuCCT-1
  IC50: > 0.008 µM
C-33-A
  IC50: > 0.008 µM
KYSE-150 cell line
  IC50: > 0.008 µM
HSC-3
  IC50: > 0.008 µM
SN12C
  IC50: > 0.008 µM
PF-382
  IC50: > 0.008 µM
Panc1005
  IC50: > 0.008 µM
NCI-H1563
  IC50: > 0.008 µM
AN3-CA
  IC50: > 0.008 µM
HOP-92
  IC50: > 0.008 µM
RCM-1
  IC50: > 0.008 µM
